The text below walks through data of patent US5804576A, “Derivatives of 5-androsten-17-ones and 5-androstan-17-ones” (Research Corporation Technologies, Inc., priority 1986, dated 1998).

One data set has as its system rat uterus. Put plainly: Estrogenic and anti-estrogenic activity (uterine weight, s.c., CD rats). Type of data set: in vivo, rat (female CD). How it is done: Female CD rats, 26-27 days old, were used. Rats were injected subcutaneously for 3 days with either DHEA or 16 in propylene glycol. Control rats received propylene glycol alone. The rats were killed on the 4th day and the uteri were removed and weighed.
Female CD rats, 26-27 days old, were injected subcutaneously for 3 days with one of the compounds of the present invention at 60 mg/kg in propylene glycol. Controls received propylene glycol alone. On the 4th day the rats were killed and the uteri were dissected out and weighed.

Data set [1] relates to TPA (Tumor Promoter) Stimulation of Mouse Epidermal DNA. Put plainly: Inhibition of TPA stimulation of mouse epidermal DNA synthesis (3H-thymidine incorporation), oral. Type of data set: in vivo, mouse (ICR male). An excerpt:
Synthesis rate by orally administered steroids.
The inhibition of tumor promoter stimulation of mouse epidermal DNA synthesis rate by steroids may also contribute to cancer preventive activity. The following assay is used:
(§1) ICR male mice (7-9 weeks old) were shaved on the back 1-2 days before use. Only mice showing no hair regrowth were used. Animals were orally intubated with a particular steroid suspended by homogenization in sesame oil or with sesame oil alone (controls). One hour later TPA (10 μg in 0.2 ml of acetone) or acetone vehicle was applied topically to the shaved skin. Twenty hours later, mice were injected i.p. with 60 μCi of ^3 H-thymidine 20 minutes before sacrifice. The animals were killed by cervical dislocation and the residual hair was removed with a depilatory agent. Epidermal scrapings were prepared according to the procedures of Hennings et al. (Cancer Res. 28, 53, 1968), homogenized in distilled water at 4° C., and the macromolecules precipitated with 0.4N trichloroacetic acid (TCA). Following 6 washes with absolute ethanol at room temperature, the nucleic acids were hydrolyzed with 0.5N TCA at 70° C. for 5 minutes. The hydrolysate (0.2 ml aliquots) were counted in an Intertechnique scintillation counter and assayed for DNA by the diphenylamine reaction.
(§2) The data are expressed as counts per minute (cpm) of tritium per μg of DNA.
A similar oral dose-response experiment with compound 16 and DHEA was performed.
Both of the above tests, i.e., the inhibition of mammalian glucose-6-phosphate dehydrogenase (G6PDH) and the inhibition of tumor promoter (TPA) stimulation of ^3 H-thymidine incorporation in mouse epidermis are recognized as indicators of cancer prophylactic activity. The following Table compares the efficacy of representative compounds of the present invention in these two tests with that of DHEA:
Male ICR mice were orally intubated with steroid suspended in sesame oil (0.5 ml/mouse) at the indicated dose. Mice not receiving steroid were given sesame oil alone. One hour later mice received topical application of TPA and 20 hours later the rate of ^3 H-thymidine incorporation into the epidermis was determined as described in Table 4.
Male ICR mice were orally intubated with steroid suspended in sesame oil (0.5 ml/mouse) at the indicated dose. Mice not receiving steroid were given sesame oil alone. One hour later mice received topical application of TPA, and 20 hours later the rate of ^3 H-thymidine incorporation into the epidermis was determined as described in Table 4.

Data set [2] deals with rat uterus; mouse seminal vesicle plus prostate. Put plainly: Sex steroid hormonal or anti-hormonal activity (estrogenic, anti-estrogenic, androgenic, anti-androgenic). The following applies: in vivo. How it is done:
Female CD rats, 26-27 days old, were injected subcutaneously for 3 days with one of the compounds of the present invention at 60 mg/kg in propylene glycol. Controls received propylene glycol alone. On the 4th day the rats were killed and the uteri were dissected out and weighed. The results are given below:
(§3) (a) Male A/J mice (5 weeks old) were obtained from the Jackson Laboratory and were housed in polycarbonate cages (5 mice/cage) in animal quarters maintained at 24°[…] C. with 12 hours of light and 12 hours of darkness each day. One week after arrival, the mice were placed on a chow diet containing one of the test compounds of the present invention at 0.36%. After 4 weeks of treatment, the above mice were killed, and the seminal vesicles and prostate glands were dissected out and weighed.

The test system of data set [3] is [3H]DMBA binding to skin DNA. Put plainly: [3H]DMBA binding to skin DNA, oral steroid. Type of data set: in vivo, mouse (male A/J). The following applies: 400 mg/kg p.o.; 12 hours. The protocol: Male A/J mice were orally intubated with steroid suspended in sesame oil (0.5 ml/mouse) at the indicated dose. Mice not receiving steroid were given sesame oil alone. Food restricted mice received approximately 60% of food of Ad libitum fed for two weeks. One hour after oral intubation, topical [^3 H]DMBA was applied to the skin, and the amount bound to DNA was determined 12 hours later as described in Table 4.
Male A/J mice were orally intubated with steroid suspended in sesame oil (0.5 ml/mouse) at the indicated dose. Mice not receiving steroid were given sesame oil alone. One hour after oral intubation, topical [^3 H]DMBA was applied to the skin, and the amount bound to DNA was determined 12 hours later as described in Table 4.

In data set [4] the test system is seminal vesicles plus prostate glands. Put plainly: Androgenic and anti-androgenic activity (seminal vesicle plus prostate weight). Type of data set: in vivo, mouse (male A/J). The following applies: con't. experiment; five weeks; DHEA 0.54%; n = 5.
In data set [5] the target is T1, purified bovine adrenal G6PDH (Bos taurus, UniProt F1MMK2).
T1 construct: full-length, wild type, no tag
Put plainly: Inhibition of purified bovine adrenal G6PDH. Type of data set: biochemical. The following applies: for inhibition at 1 µM: Conc. 1 μm; for inhibition at 10 µM: Conc. 10 μm. The source says: The compounds listed below are screened as inhibitors of purified bovine adrenal G6PDH activity as one predictor of cancer preventive action. The assay for testing the inhibition of purified bovine adrenal G6PDH is according to the procedure by Oertel, G. W. and Rebelein, I. in Biochem. Biophys. Acta, 184, 459-460 (1969). The results are given below in Table I:
Both of the above tests, i.e., the inhibition of mammalian glucose-6-phosphate dehydrogenase (G6PDH) and the inhibition of tumor promoter (TPA) stimulation of ^3 H-thymidine incorporation in mouse epidermis are recognized as indicators of cancer prophylactic activity. The following Table compares the efficacy of representative compounds of the present invention in these two tests with that of DHEA: […]

The subject of data set [6] is seminal vesicles plus prostate glands. Put plainly: Androgenic and anti-androgenic activity (seminal vesicle plus prostate weight). Type of data set: in vivo, mouse (male A/J). The following applies: diet, male A/J mice. The protocol: Male A/J mice (5 weeks old) were obtained from the Jackson Laboratory and were housed in polycarbonate cages (5 mice/cage) in animal quarters maintained at 24°±1° C. with 12 hours of light and 12 hours of darkness each day. One week after arrival, mice were placed on a chow diet containing either 0.18% or 0.09% 16 or without steroid. Mice were weighed weekly. After 4 weeks, the mice were killed, and the seminal vesicles plus prostate glands were dissected out and weighed.
as §3

A short description of data set [7]: Anti-obesity test (body weight, food consumption). Type of data set: in vivo, mouse (male A/J). The following applies: for weekly weight (Table 13): 0.54% in food; for mean weekly weight: n = 5. The protocol:
Male A/J mice (5 weeks old) were obtained from the Jackson Laboratory and were housed in polycarbonate cages (5 mice/cage) in animal quarters maintained at 24°±1° C. with 12 hours of light and 12 hours of darkness each day. One week after arrival, the mice were placed on a chow diet containing varying concentrations of DHEA or other steroid. Animals were weighed weekly; food consumption was determined weekly by subtracting the amount of food remaining in the cage from the amount added.
Male A/J (5 weeks old) were obtained from the Jackson Laboratory and were housed in polycarbonate cages (5 mice/cage) in animal quarters maintained at 24°±1° C. with 12 hours of light and 12 hours of darkness each day. One week after arrival, the mice were placed on a diet containing either DHEA, 19, or without steroid. Animals were weighed weekly. The concentration of DHEA or 19 used in the food was 0.54%.
Male A/J mice (5 weeks old) were obtained from the Jackson Laboratory and were housed in polycarbonate cages (5 mice/cage) in animal quarters maintained at 24°±1° C. with 12 hours of light and 12 hours of darkness each day. One week after arrival, the mice were placed on a show diet containing DHEA, 16, or 21 at 0.36%. Animals were weighed weekly.

Data set [8] relates to TPA stimulation in DNA synthesis rate (mouse epidermis). Put plainly: Inhibition of TPA stimulation of mouse epidermal DNA synthesis, intraperitoneal. Type of data set: in vivo, mouse (ICR male). The note with it: i.p. dose-response. The protocol:
as §1, §2
Compound 2 or 3 in comparison with DHEA by Intraperitoneal Injection.
Steroids were suspended in sterile 95% saline--5% Emulphor and injected intraperitoneally. Otherwise conditions were the same as when steroids were orally administered.

The mark [9] stands for this setting: read-out: Percent Inhibition (G6PDH).

T1 sequence (F1MMK2 31-70): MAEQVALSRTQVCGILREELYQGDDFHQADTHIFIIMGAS
T1 sequence (F1MMK2 101-575): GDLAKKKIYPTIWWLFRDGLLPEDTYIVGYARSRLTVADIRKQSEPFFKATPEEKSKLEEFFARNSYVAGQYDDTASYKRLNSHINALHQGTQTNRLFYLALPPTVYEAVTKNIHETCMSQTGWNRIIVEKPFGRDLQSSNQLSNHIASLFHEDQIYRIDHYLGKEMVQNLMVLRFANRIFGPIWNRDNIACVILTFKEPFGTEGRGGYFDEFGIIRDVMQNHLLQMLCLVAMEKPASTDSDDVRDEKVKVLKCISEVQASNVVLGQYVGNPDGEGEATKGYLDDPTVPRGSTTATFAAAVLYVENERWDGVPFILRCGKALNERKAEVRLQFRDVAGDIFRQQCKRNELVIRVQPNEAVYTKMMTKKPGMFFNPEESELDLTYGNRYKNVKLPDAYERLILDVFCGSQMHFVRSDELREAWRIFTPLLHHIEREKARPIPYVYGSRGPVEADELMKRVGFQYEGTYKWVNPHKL

As for `C[C@H]1CC[C@@]2(C)C(=CC[C@@H]3[C@@H]2CC[C@]2(C)C(=O)[C@H](O)C[C@@H]32)C1` [Compound 19], the “Mean Uterine Weight ± S.D.” value with rat uterus (60 mg/kg s.c., 3 days, Tables 16 and 17) was determined as 2.16 ± 0.5 mg/100 gm body weight. Also, in the data set with rat uterus (s.c., 60 mg/kg or higher, female CD rats), the “estrogenic / anti-estrogenic effect, uterine weight (in words)” value is recorded as “no apparent estrogenic nor anti-estrogenic activity”. In addition, the “TPA stimulation in 3H-thymidine incorporation (in words)” value in data set [1] (oral, single administration) is on record as “to a degree comparable to that produced by food restriction at doses well below 400 mg/kg”. Also, the “estrogenic, anti-estrogenic, androgenic, anti-androgenic activity (in words)” value in data set [2] was “neither estrogenic, anti-estrogenic, androgenic, nor anti-androgenic activity”. The “SPECIFIC ACTIVITY ([3H]DMBA bound to skin DNA)” value in [3] was found to be 20.4 ± 1.1 cpm/ug DNA. Also, the “Mean Seminal Vesicle plus Prostate Weight ± S.D.” value in data set [4] is listed as 6.45 ± 0.65 mg/100 gm body weight. Further, in data set [5], the “G6PDH inhibition compared with DHEA (in words)” value is recorded as “more effective inhibitorsof G6PDH than is DHEA”. Also, the inhibition at 1 µM in data set [5] (setting [9]) was 29%. The inhibition at 10 µM in data set [5] (setting [9]) came out at 64%. In addition, in data set [6], the “androgenic / anti-androgenic effect, seminal vesicle plus prostate weight (in words)” value is listed as “no significant effect on seminal vesicle plus prostate gland weight”. In addition, the “anti-weight effect (in words)” value in [7] (400 mg/kg repeated (DHEA), cancer preventive dosages (19, 20)) was “do not produce an anti-weight effect”. The “weekly weight (Table 13)” value is 21.1 ± 0.8 in data set [7] (week 0); 19.1 ± 0.9 in [7] (week 1); 18.4 ± 1.0 in data set [7] (week 2); 18.7 ± 1.4 in data set [7] (week 3); 19.7 ± 1.1 in data set [7] (week 4); 20.6 ± 0.4 in data set [7] (week 5).

Turning to `C[C@]12CCCC[C@@H]1CC[C@@H]1[C@@H]2CC[C@]2(C)C(=O)CC[C@@H]12` [Compound 3], the “activity compared with DHEA, TPA stimulation (in words)” value in data set [1] (200 mg/kg oral) is on record as “somewhat more active than DHEA”. Moreover, the “blocking the TPA stimulation in DNA synthesis rate, compared with DHEA (in words)” value in data set [8] was “more active in blocking the TPA stimulation in DNA synthesis rate”. In addition, the inhibition at 0.1 µM in data set [5] (Conc. 0.1 μm, read-out: Percent Inhibition (G6PDH)) was 10%. Further, the inhibition at 1 µM in data set [5] (setting [9]) was 69%. For the same compound, the inhibition at 10 µM in data set [5] (setting [9]) came out at 80%. Besides, the mean weekly weight in data set [7] (0.35% of diet, week 0) is given as 21.8 ± 2.2 grams; in [7] (0.35% of diet, week 1) it was 22.6 ± 1.8 grams; in data set [7] (0.35% of diet, week 2) it was 23.6 ± 1.8 grams; in data set [7] (0.35% of diet, week 3), 24.8 ± 1.8 grams; in [7] (0.35% of diet, week 4) it was 24.6 ± 1.8 grams; in data set [7] (0.35% of diet, week 5) it was 24.8 ± 1.9 grams. Besides, the mean weekly weight is 21.6 ± 2.6 grams in data set [7] (0.7% of diet, week 0); 20.0 ± 1.9 grams in data set [7] (0.7% of diet, week 1); 21.3 ± 1.8 grams in data set [7] (0.7% of diet, week 2); 21.8 ± 1.6 grams in [7] (0.7% of diet, week 3); 22.0 ± 1.6 grams in data set [7] (0.7% of diet, week 4); 21.4 ± 1.1 grams in data set [7] (0.7% of diet, week 5).
